Reference: patent US12371428B2 (Exelixis, Inc., priority 2019, dated 2025)
Where a name gives a salt, the structure may show the parent alone. Read-outs that look alike come from different tables or passages of the source.

Legend:
[1] = target: Met (phospho-Met, HGF-stimulated PC-3 prostate cancer cells) (Homo sapiens (Human), UniProt P08581); experiment: Met autophosphorylation ELISA in PC-3 cells (Example F); format: cell-based; details: cellular activity; Met autophosphorylation ELISA in PC-3 cells; read-out: c-Met IC50
Outline: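 Compounds were tested on HGF-stimulated PC-3 cells. After 24 h culture and 3 h serum starvation, cells got compound for 1 h and 100 ng/mL HGF for 10 min, and Met tyrosine phosphorylation was measured by ELISA.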

[2] = target: Human KDR (residues 790-1356) (Homo sapiens (Human), UniProt P35968); experiment: Human KDR kinase assay, HTRF KinEase (Example B-2); format: biochemical
Outline: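 Human KDR residues 790-1356 (0.1 ng/well) in buffer with 5 mM MgCl2, 1 mM MnCl2, 1 mM DTT, biotinylated peptide substrate, ATP at Km (4.0 μM), 3% DMSO, 10 compound concentrations; 40 min, room temperature. EDTA stop, streptavidin-XL665/Eu-TK antibody HTRF read 665/620 nm; 4-parameter IC50.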

[3] = target: Human MER (residues 528-999) (Homo sapiens (Human), UniProt Q12866); experiment: Human Mer kinase assay, HTRF KinEase (Example C-2); format: biochemical
Outline: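 Recombinant MER 528-999 (1 ng/well) in buffer with 5 mM MgCl2 and 1 mM DTT was reacted with biotinylated peptide and ATP at Km (40 μM) for 60 min at room temperature. EDTA stop with SA-XL665 and Eu3+ TK antibody, then 665/620 nm HTRF read; IC50 from 4-parameter fit.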

[4] = target: Human MET (residues 956-1390) (Homo sapiens (Human), UniProt P08581); experiment: Human Met kinase assay, HTRF KinEase (Example D-2); format: biochemical; details: read-out: c-Met IC50
Outline: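 MET kinase domain (956-1390), 0.1 ng/well, in buffer with 5 mM MgCl2, 1 mM DTT and 1 mM MnCl2, phosphorylated a biotinylated peptide at ATP Km for 40 min at RT; 10 concentrations, 3% DMSO final. EDTA-stopped HTRF read after 60 min; IC50 from a 4-parameter logistic fit.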

[5] = target: KDR (phospho-KDR, VEGF165-stimulated HUVEC cells) (Homo sapiens (Human), UniProt P35968); experiment: KDR autophosphorylation ELISA in HUVEC cells (Example G); format: cell-based; details: cellular activity; KDR autophosphorylation ELISA in HUVEC cells
Outline: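 IC50 values derive from nonlinear curve fitting of phospho-KDR levels measured by ELISA and interpolated from a phosphoprotein standard. Beforehand, starved HUVECs received compound (0.3% DMSO vehicle) for one hour and were activated with VEGF165 at 100 ng/mL for 5 min.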

[6] = protocol of Example B-2 (other compounds)
[7] = protocol of Example C-2 (other compounds)
[8] = protocol of Example D-2 (other compounds)

Human MER (residues 528-999), sequence (Q12866 528-999): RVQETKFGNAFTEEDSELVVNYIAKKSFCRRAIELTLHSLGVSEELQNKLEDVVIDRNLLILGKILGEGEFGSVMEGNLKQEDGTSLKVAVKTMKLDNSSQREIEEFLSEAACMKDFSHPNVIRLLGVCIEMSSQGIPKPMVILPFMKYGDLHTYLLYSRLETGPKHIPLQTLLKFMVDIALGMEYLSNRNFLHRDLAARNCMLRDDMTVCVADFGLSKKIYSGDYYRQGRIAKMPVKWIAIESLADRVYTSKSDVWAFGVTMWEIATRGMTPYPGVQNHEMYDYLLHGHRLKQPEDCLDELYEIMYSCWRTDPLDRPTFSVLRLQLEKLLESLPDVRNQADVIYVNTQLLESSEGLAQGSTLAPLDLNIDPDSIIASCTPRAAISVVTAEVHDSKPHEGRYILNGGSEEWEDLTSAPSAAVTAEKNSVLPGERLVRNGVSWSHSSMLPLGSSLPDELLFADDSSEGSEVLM
Met (phospho-Met, HGF-stimulated PC-3 prostate cancer cells), sequence (P08581 25-1390): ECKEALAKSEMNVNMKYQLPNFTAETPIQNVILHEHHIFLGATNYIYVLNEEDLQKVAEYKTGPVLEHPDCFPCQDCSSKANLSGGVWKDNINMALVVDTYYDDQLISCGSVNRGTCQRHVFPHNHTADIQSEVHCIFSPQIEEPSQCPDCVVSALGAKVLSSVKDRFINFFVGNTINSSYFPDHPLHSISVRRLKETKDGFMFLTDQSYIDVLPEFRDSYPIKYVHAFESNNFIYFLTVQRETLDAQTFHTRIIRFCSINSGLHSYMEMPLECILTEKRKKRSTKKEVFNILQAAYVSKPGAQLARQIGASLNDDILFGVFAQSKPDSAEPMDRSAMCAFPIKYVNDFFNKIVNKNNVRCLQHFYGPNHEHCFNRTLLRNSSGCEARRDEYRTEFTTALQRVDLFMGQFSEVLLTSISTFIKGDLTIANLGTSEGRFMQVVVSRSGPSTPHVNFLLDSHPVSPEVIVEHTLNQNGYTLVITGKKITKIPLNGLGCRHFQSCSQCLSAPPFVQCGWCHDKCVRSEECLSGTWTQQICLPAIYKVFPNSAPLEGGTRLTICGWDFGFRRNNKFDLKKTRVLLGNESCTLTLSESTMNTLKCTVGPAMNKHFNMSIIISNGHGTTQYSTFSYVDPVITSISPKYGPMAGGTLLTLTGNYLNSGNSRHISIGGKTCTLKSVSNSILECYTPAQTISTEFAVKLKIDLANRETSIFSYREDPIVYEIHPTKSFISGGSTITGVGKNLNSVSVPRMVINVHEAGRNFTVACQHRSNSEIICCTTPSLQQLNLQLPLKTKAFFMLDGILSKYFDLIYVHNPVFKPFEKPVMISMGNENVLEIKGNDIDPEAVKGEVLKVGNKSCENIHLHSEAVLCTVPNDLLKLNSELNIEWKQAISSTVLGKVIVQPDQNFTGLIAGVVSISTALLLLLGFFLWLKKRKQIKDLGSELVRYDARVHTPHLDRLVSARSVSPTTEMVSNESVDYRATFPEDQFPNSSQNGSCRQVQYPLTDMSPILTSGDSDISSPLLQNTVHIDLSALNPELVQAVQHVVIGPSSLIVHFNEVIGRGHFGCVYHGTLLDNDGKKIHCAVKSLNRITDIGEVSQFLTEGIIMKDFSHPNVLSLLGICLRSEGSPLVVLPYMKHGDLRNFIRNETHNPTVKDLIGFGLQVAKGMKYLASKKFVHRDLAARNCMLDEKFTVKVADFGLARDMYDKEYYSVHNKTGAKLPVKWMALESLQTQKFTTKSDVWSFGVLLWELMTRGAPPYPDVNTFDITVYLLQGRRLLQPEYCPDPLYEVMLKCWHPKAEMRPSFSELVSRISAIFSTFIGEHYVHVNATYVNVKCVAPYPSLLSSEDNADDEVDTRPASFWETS
KDR (phospho-KDR, VEGF165-stimulated HUVEC cells), sequence (P35968 20-1356): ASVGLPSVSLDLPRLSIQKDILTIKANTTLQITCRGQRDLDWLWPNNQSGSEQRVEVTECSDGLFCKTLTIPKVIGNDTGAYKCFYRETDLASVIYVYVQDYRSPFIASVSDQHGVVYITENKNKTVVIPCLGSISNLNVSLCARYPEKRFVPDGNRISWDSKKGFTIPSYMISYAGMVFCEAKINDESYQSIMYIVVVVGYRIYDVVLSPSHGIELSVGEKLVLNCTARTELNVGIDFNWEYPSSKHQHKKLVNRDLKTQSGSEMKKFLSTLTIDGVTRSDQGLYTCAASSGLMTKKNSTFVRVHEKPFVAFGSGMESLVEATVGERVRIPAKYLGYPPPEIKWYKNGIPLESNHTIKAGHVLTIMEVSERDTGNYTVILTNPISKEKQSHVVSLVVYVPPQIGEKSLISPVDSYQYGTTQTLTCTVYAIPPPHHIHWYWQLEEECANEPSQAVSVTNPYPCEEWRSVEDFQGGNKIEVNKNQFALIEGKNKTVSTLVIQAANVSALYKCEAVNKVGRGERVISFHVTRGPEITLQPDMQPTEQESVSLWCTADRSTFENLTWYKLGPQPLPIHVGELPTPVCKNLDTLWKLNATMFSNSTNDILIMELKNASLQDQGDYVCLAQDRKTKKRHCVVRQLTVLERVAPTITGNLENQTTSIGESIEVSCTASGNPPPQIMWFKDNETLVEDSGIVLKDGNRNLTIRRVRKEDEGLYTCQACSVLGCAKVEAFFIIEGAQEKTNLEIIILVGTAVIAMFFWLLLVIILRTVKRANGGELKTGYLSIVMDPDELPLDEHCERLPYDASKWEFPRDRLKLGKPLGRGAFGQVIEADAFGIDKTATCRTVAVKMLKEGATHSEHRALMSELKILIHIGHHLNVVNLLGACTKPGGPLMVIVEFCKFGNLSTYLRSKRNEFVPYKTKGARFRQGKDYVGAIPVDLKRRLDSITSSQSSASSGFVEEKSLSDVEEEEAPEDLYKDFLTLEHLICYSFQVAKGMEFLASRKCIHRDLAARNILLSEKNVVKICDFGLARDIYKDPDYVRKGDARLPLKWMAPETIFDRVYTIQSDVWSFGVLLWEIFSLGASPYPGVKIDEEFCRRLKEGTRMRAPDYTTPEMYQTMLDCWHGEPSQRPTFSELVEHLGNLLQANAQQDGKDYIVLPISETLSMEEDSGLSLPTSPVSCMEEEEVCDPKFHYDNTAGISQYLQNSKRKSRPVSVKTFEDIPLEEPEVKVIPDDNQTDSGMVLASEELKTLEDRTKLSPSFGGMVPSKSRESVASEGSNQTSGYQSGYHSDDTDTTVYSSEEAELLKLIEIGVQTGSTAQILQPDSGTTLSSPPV
Human MET (residues 956-1390), sequence (P08581 956-1390): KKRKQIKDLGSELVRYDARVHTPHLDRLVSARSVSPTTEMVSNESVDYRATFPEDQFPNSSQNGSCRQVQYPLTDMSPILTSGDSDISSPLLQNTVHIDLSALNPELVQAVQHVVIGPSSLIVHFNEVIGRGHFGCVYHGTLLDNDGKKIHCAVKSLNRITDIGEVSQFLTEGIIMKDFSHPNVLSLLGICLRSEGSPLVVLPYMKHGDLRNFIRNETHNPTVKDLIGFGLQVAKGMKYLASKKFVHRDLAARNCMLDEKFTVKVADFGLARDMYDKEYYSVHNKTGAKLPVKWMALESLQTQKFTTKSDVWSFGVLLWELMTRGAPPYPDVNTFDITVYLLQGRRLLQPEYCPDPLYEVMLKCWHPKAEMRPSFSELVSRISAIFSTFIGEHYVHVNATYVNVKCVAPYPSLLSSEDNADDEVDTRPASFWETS
Human KDR (residues 790-1356), sequence (P35968 790-1356): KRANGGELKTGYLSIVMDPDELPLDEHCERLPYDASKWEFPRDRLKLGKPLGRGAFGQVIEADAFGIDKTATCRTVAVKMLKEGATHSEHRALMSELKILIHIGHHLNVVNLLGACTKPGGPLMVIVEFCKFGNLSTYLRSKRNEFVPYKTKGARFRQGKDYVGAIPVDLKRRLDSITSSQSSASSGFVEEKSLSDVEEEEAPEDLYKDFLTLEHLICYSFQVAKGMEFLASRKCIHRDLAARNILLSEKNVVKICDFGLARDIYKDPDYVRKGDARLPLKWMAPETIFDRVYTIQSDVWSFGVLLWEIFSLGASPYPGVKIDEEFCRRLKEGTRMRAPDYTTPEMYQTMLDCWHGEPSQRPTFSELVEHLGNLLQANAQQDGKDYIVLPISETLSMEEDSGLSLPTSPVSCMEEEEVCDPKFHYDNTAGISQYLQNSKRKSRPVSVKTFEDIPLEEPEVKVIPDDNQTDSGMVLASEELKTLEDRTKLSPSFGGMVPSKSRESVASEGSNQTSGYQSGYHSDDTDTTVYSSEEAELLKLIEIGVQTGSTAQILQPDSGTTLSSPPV

IC50 [1] [nM]	IC50 ([2]; protocol of Example B-2) [nM]	IC50 ([3]; protocol of Example C-2) [nM]	IC50 ([4]; protocol of Example D-2) [nM]	IC50 [5] [nM]	IC50 [2, 6] [nM]	IC50 [3, 7] [nM]	IC50 [4, 8] [nM]	SMILES
< 100	> 300	< 100	< 100	> 300				COc1cnc2c(Oc3ccc(NC(=O)c4cn(C)c(OC)c(-c5ccc(F)cc5)c4=O)cc3F)ccnc2c1 [Compound 587, N-[3-Fluoro-4-[(7-methoxy-1,5-naphthyridin-4-yl)oxy]phenyl]-5-(4-fluorophenyl)-6-methoxy-1-methyl-4-oxopyridine-3-carboxamide]
100 to 300	> 300	< 100	< 100	> 300				Cc1nc2c(Oc3ccc(NC(=O)c4cn(C(C)C)c(C)c(-c5ccc(F)cc5)c4=O)cc3)ccnc2cc1-c1cnn(C(F)F)c1 [Compound 612, N-[4-[[7-[1-(Difluoromethyl)pyrazol-4-yl]-6-methyl-1,5-naphthyridin-4-yl]oxy]phenyl]-5-(4-fluorophenyl)-6-methyl-4-oxo-1-propan-2-ylpyridine-3-carboxamide hydrochloride]
100 to 300				> 300	> 300	< 100	< 100	COc1cc2nccc(Oc3ccc(NC(=O)c4cn(C(C)(C)C)c(C)c(-c5ccc(F)cc5)c4=O)cc3F)c2nc1OC [Compound 139, 1-tert-Butyl-N-[4-[(6,7-dimethoxy-1,5-naphthyridin-4-yl)oxy]-3-fluorophenyl]-5-(4-fluorophenyl)-6-methyl-4-oxopyridine-3-carboxamide]
< 100	> 300	< 100	< 100	> 300				Cc1nc2c(Oc3ccc(NC(=O)c4cn(C(C)C)c(C)c(-c5ccc(F)cc5)c4=O)cc3)ccnc2cc1-c1cccnc1 [Compound 613, 5-(4-Fluorophenyl)-6-methyl-N-[4-[(6-methyl-7-pyridin-3-yl-1,5-naphthyridin-4-yl)oxy]phenyl]-4-oxo-1-propan-2-ylpyridine-3-carboxamide hydrochloride]
100 to 300				> 300	> 300	100 to 300	< 100	Cc1c(-c2ccc(F)cc2)c(=O)c(C(=O)Nc2ccc(Oc3ccnc4cc(F)cnc34)c(F)c2)cn1C(C)C [Compound 162, N-[3-Fluoro-4-[(7-fluoro-1,5-naphthyridin-4-yl)oxy]phenyl]-5-(4-fluorophenyl)-6-methyl-4-oxo-1-propan-2-ylpyridine-3-carboxamide]
< 100	< 100	< 100	< 100	< 100				CCn1nc(C(=O)Nc2ccc(Oc3ccnc4cc(OC)c(OC)nc34)c(F)c2)c(=O)c(-c2ccc(F)cc2)c1C [Compound 568, N-[4-[(6,7-Dimethoxy-1,5-naphthyridin-4-yl)oxy]-3-fluorophenyl]-1-ethyl-5-(4-fluorophenyl)-6-methyl-4-oxopyridazine-3-carboxamide]
< 100	< 100	< 100	< 100	< 100				Cc1ncc(C(=O)Nc2ccc(Oc3ccnc4cc(C(N)=O)cnc34)c(F)c2)c(O)c1-c1ccc(F)cc1 [Compound 577, 8-[2-Fluoro-4-[[5-(4-fluorophenyl)-4-hydroxy-6-methylpyridine-3-carbonyl]amino]phenoxy]-1,5-naphthyridine-3-carboxamide]
< 100	100 to 300	< 100	< 100	< 100				Cc1nc2c(Oc3ccc(NC(=O)c4cnc(C)c(-c5ccc(F)cc5)c4O)cc3)ccnc2cc1-c1cnn(C(F)F)c1 [Compound 617, N-[4-[[7-[1-(Difluoromethyl)pyrazol-4-yl]-6-methyl-1,5-naphthyridin-4-yl]oxy]phenyl]-5-(4-fluorophenyl)-4-hydroxy-6-methylpyridine-3-carboxamide hydrochloride]
100 to 300				< 100	< 100	< 100	< 100	COc1nc2c(Oc3ccc(NC(=O)c4cncc(-c5ccc(F)cc5)c4O)cc3F)ccnc2cc1Br [Compound 129, N-[4-[(7-Bromo-6-methoxy-1,5-naphthyridin-4-yl)oxy]-3-fluorophenyl]-5-(4-fluorophenyl)-4-hydroxypyridine-3-carboxamide]
< 100	> 300	100 to 300	100 to 300	< 100				Cc1cc(F)ccc1-c1c(C)ncc(C(=O)Nc2ccc(Oc3ccnc4cc(C(C)C)cnc34)c(F)c2)c1O [Compound 593, 5-(4-Fluoro-2-methylphenyl)-N-[3-fluoro-4-[(7-propan-2-yl-1,5-naphthyridin-4-yl)oxy]phenyl]-4-hydroxy-6-methylpyridine-3-carboxamide]
< 100	> 300	< 100	< 100	> 300				COc1cc2ncnc(Oc3ccc(NC(=O)c4cn(-c5cnn(C)c5)cc(-c5ccc(F)cc5)c4=O)cc3F)c2nc1OC [Compound 637, N-[4-(6,7-dimethoxyprido[3,2-d]pyrimidin-4-yl)oxy-3-fluorophenyl]-5-(4-fluorophenyl)-1-(1-methylpyrazol-4-yl)-4-oxopyridine-3-carboxamide]
< 100				> 300	> 300	< 100	< 100	CCn1cc(C(=O)Nc2ccc(Oc3ccnc4cc(OC)cnc34)c(F)c2)c(=O)c(-c2ccc(F)cc2)c1 [Compound 170, 1-Ethyl-N-[3-fluoro-4-[(7-methoxy-1,5-naphthyridin-4-yl)oxy]phenyl]-5-(4-fluorophenyl)-4-oxopyridine-3-carboxamide]
< 100				< 100	< 100	< 100	< 100	COc1cc2nccc(Oc3ccc(NC(=O)c4cnc(C)c(-c5ccc(F)cc5)c4O)cc3)c2nc1OC [Compound 119, N-[4-[(6,7-Dimethoxy-1,5-naphthyridin-4-yl)oxy]phenyl]-5-(4-fluorophenyl)-4-hydroxy-6-methylpyridine-3-carboxamide]
> 300	> 300	< 100	< 100	< 100				Cc1nc2c(Oc3ccc(NC(=O)c4cnc(C)c(-c5ccc(F)cc5)c4O)cc3)ccnc2cc1-c1cccnc1 [Compound 616, 5-(4-Fluorophenyl)-4-hydroxy-6-methyl-N-[4-[(6-methyl-7-pyridin-3-yl-1,5-naphthyridin-4-yl)oxy]phenyl]pyridine-3-carboxamide hydrochloride]
< 100				> 300	> 300	< 100	< 100	COc1cnc2c(Oc3ccc(NC(=O)c4cn(C(C)C)c(C)c(-c5ccc(F)cc5)c4=O)cc3F)ccnc2c1 [Compound 121, N-[3-Fluoro-4-[(7-methoxy-1,5-naphthyridin-4-yl)oxy]phenyl]-5-(4-fluorophenyl)-6-methyl-4-oxo-1-propan-2-ylpyridine-3-carboxamide]
< 100				100 to 300	< 100	< 100	< 100	COc1cc2nccc(Oc3ccc(NC(=O)c4cn(C(C)C)c(C)c(-c5ccccc5)c4=O)cc3F)c2nc1OC [Compound 29, N-[4-[(6,7-Dimethoxy-1,5-naphthyridin-4-yl)oxy]-3-fluorophenyl]-6-methyl-4-oxo-5-phenyl-1-propan-2-ylpyridine-3-carboxamide hydrochloride]
100 to 300	100 to 300	< 100	< 100	< 100				Cc1nc2c(Oc3ccc(NC(=O)c4cnc(C)c(-c5ccc(F)cc5)c4O)cc3F)ccnc2cc1-c1cccnc1 [Compound 618, N-[3-Fluoro-4-[(6-methyl-7-pyridin-3-yl-1,5-naphthyridin-4-yl)oxy]phenyl]-5-(4-fluorophenyl)-4-hydroxy-6-methylpyridine-3-carboxamide hydrochloride]
